From ChEMBL document CHEMBL4219070, “Probing biological activity through structural modelling of ligand-receptor interactions of 2,4-disubstituted thiazole retinoids” (Bioorg Med Chem, 2018)
Calls of active or inactive are those of the source. The calls are words filed in the database; no cut-off is given here.

Assays:
SH-SY5Y = assay: Induction of neuronal differentiation in human SH-SY5Y cells assessed as increase in RARbeta mRNA expression at 0.001 to 1 uM measured after 8 hrs by RT-PCR analysis; format: functional, cell-based
Homo sapiens = species on record: Homo sapiens; assay: Induction of neuronal differentiation in human TERA2.cl.SP12 cells assessed as small and scattered colonies of TUJ-1 positive cells at 10 uM measured measured after 2 weeks by immunofluorescence method; format: functional, cell-based

SMILES	Activity (SH-SY5Y)	Activity (Homo sapiens)
CC1=C(/C=C/C(C)=C/C=C/C(C)=C/C(=O)O)C(C)(C)CCC1	Active	–
CCOC(=O)c1ccc(-c2nc(-c3ccccc3)c(C)s2)cc1	–	Active
CCOCCOc1nc(-c2ccc(C(=O)O)cc2)sc1C	Active	Active
